The molecules below were run against Substance-P receptor (Homo sapiens, UniProt P25103) (assay: Compound was evaluated for the inhibition of binding of [3H]SP in human IM-9 cells).
Format: cell-based

Sequence of Substance-P receptor (P25103 whole entry): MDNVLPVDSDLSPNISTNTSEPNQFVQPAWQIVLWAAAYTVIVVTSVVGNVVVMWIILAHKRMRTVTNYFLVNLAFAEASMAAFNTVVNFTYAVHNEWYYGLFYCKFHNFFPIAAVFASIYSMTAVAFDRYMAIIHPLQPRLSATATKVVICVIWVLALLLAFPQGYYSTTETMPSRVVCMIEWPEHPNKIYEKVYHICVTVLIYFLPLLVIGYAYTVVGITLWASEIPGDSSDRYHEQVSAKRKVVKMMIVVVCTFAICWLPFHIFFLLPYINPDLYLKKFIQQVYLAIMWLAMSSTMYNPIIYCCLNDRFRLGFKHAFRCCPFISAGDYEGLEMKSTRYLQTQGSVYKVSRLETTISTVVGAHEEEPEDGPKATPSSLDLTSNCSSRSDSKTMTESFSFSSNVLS

Structure (SMILES) | IC50 [nM]
COc1ccc(CN[C@H]2C3CCCN(CC3)[C@H]2C(c2ccccc2)c2ccccc2)c(OC)c1 (some centres undefined) | 86.3
COc1ccccc1CN[C@H]1C2CCCN(CC2)[C@H]1C(c1ccccc1)c1ccccc1 (some centres undefined) | 34.3
COc1ccccc1CN[C@H]1C2CCCN(CC2)[C@H]1C(c1ccc(F)cc1)c1ccc(F)cc1 (some centres undefined) | 310
Clc1ccccc1CN[C@H]1C2CCCN(CC2)[C@H]1C(c1ccccc1)c1ccccc1 (some centres undefined) | 560

From ChEMBL document CHEMBL1159169, “Nuclear variations of quinuclidine substance P antagonists: 2-diphenylmethyl-1-azabicyclo[3.2.2]nonan-3-amines” (Bioorg Med Chem Lett, 1993)
